In patent publication US8536212B2, “Protective agent for retinal nerve or optic nerve” (Sanwa Kagaku Kenkyusho Co., Ltd., priority 2007, dated 2013):

Tested on: retinal ganglion cells
Experiment: Mouse ophthalmic artery occlusion model: retinal ischemia 2 hours, reperfusion 22 hours, survival of retinal ganglion cells
Type: in vivo, C57BL/6N normal mice (wild type mice)
Conditions: for The number of surviving retinal ganglion cells per 1 μm of retina section, average ± SEM: drug given by forced intragastric administration 15 minutes before reperfusion
Description: In the experiment, mouse models with acute ophthalmic artery infarction, namely, mouse models with ophthalmic artery infarction were used. In Experiment 1, eight to ten-week-old C57BL/6N normal mice (wild type mice) were used and the therapeutic efficacy of fidarestat as the compound with aldose reductase (AR) inhibiting activity was evaluated. Here, those mice were divided into two groups: a control group to which only vehicle was administered and a fidarestat administered group to which fidarestat was administered. In Experiment 2, eight to ten-week-old C57BL/6N normal mice (wild type mice:AR^+/+ mice) and AR gene-deficient mice (AR^−/− mice) were used and the role of AR was examined. Here, those mice were divided into two groups: a wild type mouse group (AR^+/+ mice) and an AR gene-deficient mouse group (AR^−/− mice) and a drug administered group was not used.
Used mice (24 to 28 g of body weight) were subjected to intraluminal suture with nylon monofilament under gas anesthesia. A nylon filament was inserted into the right internal carotid artery at the bifurcation of the middle cerebral artery and the anterior cerebral artery from the common carotid artery. The mice were subjected to retinal ischemia in the right eye. The filament was pulled 2 hours after the ischemia and reperfusion was performed for 22 hours. On the other hand, left eye was evaluated as a normal control eye. In order to confirm ischemia or reperfusion, relative cerebral blood flow (rCBF) in the middle cerebral artery was monitored with a laser Doppler meter during the experiment. Decrease in the rCBF of 75% or more was defined as middle cerebral artery ischemia. The drug was administered 15 minutes before reperfusion starts by forced intragastric administration. At the end of the experiment, the isolated eyes were fixed in 4% paraformaldehyde at 4° C. overnight. The retinal ganglion cell layer was subjected to hematoxylin and eosin stain. Then, the number of surviving retinal ganglion cells was observed and measured. […] All cells of the retina ganglionic layer in each retina section were measured. Further, all measurements were performed by a blind fashion.

NC(=O)[C@@H]1C[C@]2(NC(=O)NC2=O)c2cc(F)ccc2O1 [Fidarestat, (2S,4S)-6-fluoro-2′,5′-dioxospiro[chroman-4,4′-imidazolidine]-2-carboxamide]
The number of surviving retinal ganglion cells per 1 μm of retina section, average ± SEM (side of no retinal ischemia (left eye, normal control eye)): 23 ± 1 per 1 μm of retina section | The number of surviving retinal ganglion cells per 1 μm of retina section, average ± SEM (side of retinal ischemia (right eye), 2 hours ischemia and 22 hours reperfusion, P<0.001 vs control group): 21 ± 1^†††^ per 1 μm of retina section | Pathological finding showing retinal ganglion cell death (hematoxylin and eosin stain) (side of retinal ischemia or side of no retinal ischemia, 2 hours ischemia, 22 hours reperfusion (FIG. 1: D3, D4)): not observed | Number of surviving retinal ganglion cells on the side of retinal ischemia compared with the control group (side of retinal ischemia, P<0.001): significantly increased
